# Source: patent publication US4069337A, “2-Substituted-indole-1-lower-alkanecarboxamides having anti-secretory or anti-ulcer activity” (Sterling Drug Inc., priority 1976, dated 1978)
# Where two headings read alike, the source gives them in different places.
# Key:
# [1] = tested on: secretion of gastric fluids; test: anti-secretory activity in pylorus-ligated rats (method of Shay et al.); format: in vivo, male albino Wistar rats
# Description: In standard biological test procedures, described generally by Shay et al., Gastroenterology 5, 43 (1945) and 26, 906 (1954) and by Selmici et al., Acta Physiol. Acad. Sci. Hung. […] Anti-secretory activity was determined in male albino Wistar rats weighing approximately 180 g. using the method described by Shay et al. which is described as follows: the rats were divided into medicated groups of at least five rats each and control groups of ten rats. The rats were medicated orally once daily for 2 days prior to stomach ligation and once again immediately following ligation. All drugs were administered as the free base, and control rats received only the vehicle of medication. The rats were housed individually in wire cages, food was withdrawn 48 hours prior to surgery, and water was withdrawn at the time of surgery. Laparotomy was performed under light ether anesthesia, the pyloric-duodenal junction was ligated, and the wound was closed with metal clips and sprayed with a protective surgical dressing. Five hours following surgery, the rats were sacrificed, the stomach was removed, and the gastric juice collected. The gastric fluid was centrifuged, the total volume, color, and volume of solids were recorded. The pH of the gastric fluid was then determined on a Beckman pH meter, and the "free" and "total" hydrochloric acid content of each gastric sample was determined by titrating an aliquot of the gastric fluid (diluted to approximately 10 ml. with distilled water) by titrating with 0.1N sodium hydroxide against Toepfers reagent and phenolphthalein, respectively. By determining the milliequivalents of hydrochloric acid per milliliter of gastric juice and knowing the total volume of gastric juice secreted by each rat, the total acid output can be calculated. Since pH is a function of "free" acid, the activity of the test compounds can be evaluated by comparison of the mean "free" acid of medicated rats with the mean "free" acid of the controls, and the activity can thus be expressed in terms of percent inhibition of free acid.
# (§1) Data obtained on administration of the compounds of formula I in rats in the anti-secretory and anti-ulcer tests described above are given in the table below. Unless noted otherwise, data were obtained on oral administration. Results in the anti-secretory activity tests are given in terms of the pH of the gastric fluid in the test animals and the percent inhibition of free acid, while results in the anti-ulcer test are given either in terms of the percent inhibition of ulcers or as a ratio representing the number of animals with ulcers (as the numerator) to the total number of animals in the test group (as the denominator). All doses are expressed in mg./kg.
# [2] = tested on: reserpine-induced stomach ulceration; test: anti-ulcer activity, reserpine-induced ulcer test (method of Selmici et al.); format: in vivo, male, albino, Sprague-Dawley rats; conditions: oral; for inhibition in vivo at 100 mg/kg / Anti-Ulcer: ratio of number of animals with ulcers to total number of animals in the test group: 100 mg./kg.
# Description: The anti-ulcer activity of the compounds was determined using the reserpine-induced anti-ulcer test method, described by Selmici et al., which is described briefly as follows: male, albino, Sprague-Dawley rats, weighing approximately 300 g., were divided into medicated and control groups of at least five rats each, and one positive control group of five rats medicated with a known drug at the active dose was run with each experiment. The rats were medicated forty-eight, twenty-four, and one hour before receiving an injection of reserpine. All test drugs were administered orally in terms of base, and the control rats received only the vehicle of medication. The rats were housed individually in wire cages, and food was withdrawn 24 hours prior to injection of reserpine, while water was allowed ad libitum. One hour following the third medication, 5.0 mg. of reserpine per kilogram of body weight in a concentration of 5 mg./ml. was injected intramuscularly in each rat. Eighteen hours after injection the rats were sacrificed, their stomachs removed, opened along the greater curvature, rinsed in warm saline, and pinned to a cork board for gross observation. The stomachs were examined for the number and size of ulcerations located in the glandular portion of the stomach with the aid of a one millimeter grid ocular with a 10x dissecting microscope. The degree of ulceration was arbitrarily graded according to the number and size of the ulcers as follows:
# The points were added together and divided by the number of rats in each group to give an ulcer score, and the difference in the mean scores of the medicated and control group was expressed as percent inhibition of ulceration. Alternatively, the results can be expressed as a ratio of the total number of rats with any degree of ulceration (as the numerator) to the total number of rats in the test group (as the denominator).
# as §1
# [3] = Rattus norvegicus, po, 5 h, oral, 25 mg./kg., read-out: % Inhibition of Free Acid
# [4] = Rattus norvegicus, po, 5 h, oral, 100 mg./kg., read-out: % Inhibition of Free Acid
# [5] = Rattus norvegicus, 5 h, oral, 100 mg./kg., read-out: % Inhibition of Free Acid
# [6] = Rattus norvegicus, sc, 5 h, s.c., 100 mg./kg., read-out: % Inhibition of Free Acid
# [7] = Rattus norvegicus, intraduodenal, 5 h, i.d., 100 mg./kg., read-out: % Inhibition of Free Acid
# [8] = Rattus norvegicus, ip, 5 h, i.p., 100 mg./kg., read-out: % Inhibition of Free Acid
Compound,"inhibition in vivo at 100 mg/kg [1, 4] [%]","pH of the gastric fluid ([1]; oral, 100 mg./kg.)","inhibition in vivo at 25 mg/kg ([2]; Rattus norvegicus, 18 h) [%]","inhibition in vivo at 100 mg/kg ([2]; Rattus norvegicus, 18 h) [%]",also measured
"Cc1c(C)n(CC(N)=O)c2ccccc12 [Example 1A, 2,3-dimethyl-1-indoleacetamide]",100,6.0,95,99,"inhibition in vivo at 25 mg/kg [1, 3]: 69%; inhibition in vivo at 50 mg/kg ([1]; Rattus norvegicus, po, 5 h, oral, 50 mg./kg., read-out: % Inhibition of Free Acid): 65%; inhibition in vivo at 200 mg/kg ([1]; Rattus norvegicus, po, 5 h, oral, 200 mg./kg., read-out: % Inhibition of Free Acid): 100%; pH of the gastric fluid ([1]; oral, 25 mg./kg.): 2.6; pH of the gastric fluid ([1]; oral, 50 mg./kg.): 3.0; pH of the gastric fluid ([1]; oral, 200 mg./kg.): 6.7; inhibition in vivo at 0.8 mg/kg ([2]; Rattus norvegicus, 18 h): 0%; inhibition in vivo at 1.56 mg/kg ([2]; Rattus norvegicus, 18 h): 38%; inhibition in vivo at 3.12 mg/kg ([2]; Rattus norvegicus, 18 h, 3.12 mg./kg.): 45%; inhibition in vivo at 6.25 mg/kg ([2]; Rattus norvegicus, 18 h): 75%; inhibition in vivo at 12.5 mg/kg ([2]; Rattus norvegicus, 18 h): 81%; inhibition in vivo at 50 mg/kg ([2]; Rattus norvegicus, 18 h): 98%"
"CCc1c(C)c2ccccc2n1CC(N)=O [Example 1C, 2-Ethyl-3-methyl-1-indoleacetamide]",50,2.8,84,96,
"Cc1c(C)n(CCCC(N)=O)c2ccccc12 [Example 1D, γ-(2,3-Dimethyl-1-indole)butyramide]",100,6.2,72,99,"inhibition in vivo at 6.25 mg/kg ([1]; Rattus norvegicus, po, 5 h, oral, 6.25 mg./kg., read-out: % Inhibition of Free Acid): 14%; inhibition in vivo at 25 mg/kg [1, 3]: 38%; pH of the gastric fluid ([1]; oral, 6.25 mg./kg.): 1.3; pH of the gastric fluid ([1]; oral, 25 mg./kg.): 1.6; inhibition in vivo at 0.8 mg/kg ([2]; Rattus norvegicus, 18 h): 38%; inhibition in vivo at 1.56 mg/kg ([2]; Rattus norvegicus, 18 h): 38%; inhibition in vivo at 6.25 mg/kg ([2]; Rattus norvegicus, 18 h): 0%"
"Cc1c(C)n(CCC(=O)N(C)C)c2ccccc12 [Example 2, β-(2,3-dimethyl-1-indole)-N,N-dimethylpropionamide]",93,4.4,34,,
"Cc1c(C)n(CC(=O)NO)c2ccccc12 [Example 3B, 2,3-Dimethyl-1-indoleacetohydroxamic acid]",20,,,99,
"CCc1c(C)n(CC(N)=O)c2ccccc12 [Example 3C, 2-Methyl-3-ethyl-1-indoleacetamide]",86,2.8,,97,
"Cc1c(C)n(CCC(=O)NCCO)c2ccccc12 [Example 3D, β-(2,3-Dimethyl-1-indole)-N-(2-hydroxyethyl)propionamide]",,1.2,48,,
"Cc1c(C)n(CCC(=O)NCCCO)c2ccccc12 [Example 3E, β-(2,3-Dimethyl-1-indole)-N-(3-hydroxypropyl)propionamide]",34,1.4,51,,
"Cc1c(C)n(CCC(=O)NO)c2ccccc12 [Example 3F, β-(2,3-Dimethyl-1-indole)propionohydroxamic acid]",34,1.3,,,"inhibition in vivo at 50 mg/kg ([2]; Rattus norvegicus, 18 h): 95%"
"Cc1c(C)n(CCC(N)=O)c2ccc(Cl)cc12 [Example 4B, β-(2,3-Dimethyl-5-chloro-1-indole)propionamide]",88,3.6,95,,
"Cc1c(C)n(CCC(N)=O)c2ccc(F)cc12 [Example 4C, β-(2,3-Dimethyl-5-fluoro-1-indole)propionamide]",97,5.9,94,,
"CCc1c(C)c2ccccc2n1CCC(N)=O [Example 4D, β-(2-Ethyl-3-methyl-1-indole)propionamide]",88,4.1,,97,
"CCc1c(C)n(CCC(N)=O)c2ccccc12 [Example 4E, β-(2-Methyl-3-ethyl-1-indole)propionamide]",42,3.4,80,93,"inhibition in vivo at 6.25 mg/kg ([2]; Rattus norvegicus, 18 h): 60%; inhibition in vivo at 12.5 mg/kg ([2]; Rattus norvegicus, 18 h): 72%; inhibition in vivo at 50 mg/kg ([2]; Rattus norvegicus, 18 h): 94%"
"Cc1c(C=O)c2ccccc2n1CCC(N)=O [Example 4F, β-(2-Methyl-3-formyl-1-indole)propionamide]",,1.2,,9,"inhibition in vivo at 100 mg/kg [1, 5]: 0%"
"Cc1c(C=O)c2cc(F)ccc2n1CCC(N)=O [Example 4G, β-(2-Methyl-3-formyl-5-fluoro-1-indole)propionamide]",,1.1,,,"inhibition in vivo at 100 mg/kg [1, 5]: 17%; inhibition in vivo at 100 mg/kg [1, 6]: 36%; pH of the gastric fluid ([1]; s.c., 100 mg./kg.): 1.2; Anti-Ulcer: ratio of number of animals with ulcers to total number of animals in the test group [2]: 5/5"
"Cc1c(C)n(CC(C)C(N)=O)c2ccccc12 (stereo not drawn) [Example 4H, β-(2,3-Dimethyl-1-indole) -α-methylpropionamide]",100,5.7,,89,
"Cc1c(C=O)c2ccccc2n1CCCC(N)=O [Example 4J, γ-(2-Methyl-3-formyl-1-indole)butyramide]",,1.2,,26,"inhibition in vivo at 100 mg/kg [1, 5]: 17%"
"Cc1c(C=O)n(CCC(N)=O)c2ccccc12 [Example 4K, β-(2-Formyl-3-methyl-1-indole)propionamide]",,1.16,,,"inhibition in vivo at 100 mg/kg [1, 7]: 37%; inhibition in vivo at 100 mg/kg [1, 8]: 54%; pH of the gastric fluid ([1]; i.d., 100 mg./kg.): 1.54; pH of the gastric fluid ([1]; i.p., 100 mg./kg.): 2.30; Anti-Ulcer: ratio of number of animals with ulcers to total number of animals in the test group [2]: 3/5"
"Cc1c(C(=O)C(F)(F)F)c2ccccc2n1CCC(N)=O [Example 4L, β-(2-Methyl-3-trifluoroacetyl-1-indole)propionamide]",,1.8,,,"inhibition in vivo at 100 mg/kg [1, 5]: 46%; inhibition in vivo at 100 mg/kg [1, 7]: 65%; inhibition in vivo at 100 mg/kg [1, 8]: 78%; pH of the gastric fluid ([1]; i.d., 100 mg./kg.): 2.5; pH of the gastric fluid ([1]; i.p., 100 mg./kg.): 3.8"
"Cc1c(-c2ccccc2)n(CCC(N)=O)c2ccccc12 [Example 4M, β-(2-Phenyl-3-methyl-1-indole)propionamide]",20,1.1,,,"inhibition in vivo at 100 mg/kg [1, 7]: 34%; inhibition in vivo at 100 mg/kg [1, 8]: 43%; pH of the gastric fluid ([1]; i.d., 100 mg./kg.): 1.2; pH of the gastric fluid ([1]; i.p., 100 mg./kg.): 1.7; Anti-Ulcer: ratio of number of animals with ulcers to total number of animals in the test group [2]: 0/5"
"NC(=O)CCn1c(-c2ccccc2)c(C=O)c2ccccc21 [Example 4N, β-(2-Phenyl-3-formyl-1-indole)propionamide]",,1.0,,,"inhibition in vivo at 100 mg/kg [1, 5]: 0%; inhibition in vivo at 100 mg/kg [1, 6]: 0%; pH of the gastric fluid ([1]; s.c., 100 mg./kg.): 1.0; Anti-Ulcer: ratio of number of animals with ulcers to total number of animals in the test group [2]: 5/5"
